From PMC9959130, “Effects of Side Chain and Peptide Bond Modifications on the Targeting Properties of Stabilized Minigastrin Analogs” (Pharmaceuticals, 2023) come the findings set out here.

Like-named read-outs stand apart in the source and are kept apart here. Where a SMILES comes first, the peptide text is derived from it. [ ]: non-standard residue; d: D form. The star is where a group is joined. DOTA = O=C(O)CN1CCN(CC(=O)O)CCN(CC(=O)*)CCN(CC(=O)O)CC1; NMeNle = CCCC[C@H](NC)C(=O)O

The nature of data set [1]: Metabolic studies in BALB/c mice (intact radiopeptide by radio-HPLC). Format: in vivo. The settings on record: i.v., 2 nmol, 10 min p.i., two animals per peptide; for Intact radiopeptide in kidney: kidney homogenate; for Intact radiopeptide in liver: liver homogenate. The method, then: All animal experiments were approved by the Austrian Ministry of Science (BMWF-66.011/0075- WF/V/3b/2016) and performed in accordance with the Austrian Animal Protection Act. Metabolic studies characterizing the stability of selected radioligands against enzymatic degradation were carried out in 7 to 8 week old female BALB/c mice (Charles River, Sulzfeld, Germany). The mice (two animals for each peptide) were intravenously injected into a lateral tail vein with 5–10 MBq of the ^111In-labeled peptide derivatives, corresponding to 2 nmol total peptide. At the time point of 10 min p.i. the animals were euthanatized by cervical dislocation. A sample of urine and blood was immediately collected. Liver and kidneys were dissected, mixed with 20 mM HEPES buffer pH 7.3 (1:1, w/v) and homogenized using an Ultra-Turrax T8 homogenizer (IKA-Werke, Staufen, Germany) for 1 min. All samples taken were analyzed by analytical HPLC using the low-sensitivity loop for urine and the high-sensitivity loop for blood, liver and kidney. Before injection into the HPLC system, all samples except urine were treated with ACN and diluted with water as described for stability studies in human serum. The percentage of intact radiopeptide in the analyzed samples was calculated by integration of the different peaks found in the radiochromatogram using Chromeleon Dionex Software (Version 7.2.9.11323).

A short description of data set [2]: Biodistribution in BALB/c nude mice bearing A431-CCK2R/A431-mock xenografts. Format: in vivo. To be noted: female, athymic BALB/c nude, mouse, iv, 20 pmol, total radioactivity, ~20 pmol, 4 h p.i. (indium-111 or lutetium-177), mean ± SD n = 4; for tissue to tissue ratio at 4 h: BALB/c nude mice; for tissue uptake at 4 h: xenografted BALB/c nude mice, i.v. The method, then: The overall biodistribution and tumor targeting properties of selected radiolabeled peptides were evaluated in female athymic BALB/c nude mice (Charles River, Sulzfeld, Germany, age of 7 to 9 weeks). After tumor induction with 2 × 10^6 A431-CCK2R or A431-mock cells (subcutaneously injected in 200 μL DMEM into the right and left flank) and a waiting period of 10–14 days (sufficient to achieve tumors of ∼0.25 g), mice were randomly divided into groups of four and treated with a bolus injection of 150 µL of the injectable solution containing the radiolabeled peptide via a lateral tail vein to achieve an injected radioactivity of 150–200 kBq and a total injected peptide amount of ~20 pmol (n = 4 for each radiopeptide). For DOTA-[(N-Me)1Nal^8]MGS5, additional biodistribution studies were performed with gallium-68 (~0.5 MBq, 20 pmol) and lutetium-177 (~0.5 MBq, 20 pmol). The animals were euthanatized by cervical dislocation at 1 h (gallium-68) or 4 h p.i. (indium-111/ lutetium-177). The tumors and other tissues (blood, lung, heart, muscle, spleen, intestine, liver, kidney, stomach, and pancreas) were dissected, weighed, and the radioactivity measured in the γ-counter. The rest of the body and a standard of the solution injected was also measured together with the collected samples. The percentage of injected activity per gram of tissue (% IA/g) and the tumor-to-organ activity ratio of selected tissues were calculated for each mouse and time point studied. Origin software (Microcal Origin 6.1, Northampton, MA, USA) was used for statistical analysis (independent t-test for two populations; significance level p < 0.05).

The nature of data set [3]: In vitro stability in human serum (intact radiopeptide by radio-HPLC). To be noted: fresh human serum, 37 °C, n = 2. Format: in vitro ADME. The method, then: In vitro stability studies were performed in human serum (n = 2). The radiolabeled peptides (1000 pmol/mL) were incubated at 37 °C and a sample of 100 μL was taken at 1, 4, and 24 h after incubation. After the precipitation of proteins with ACN at 1:1.5 (v/v), centrifugation (14,000 rpm, 2 min, centrifuge 5424, Eppendorf AG, Germany) and dilution with water at 1:1 (v/v), an aliquot of 100 μL of this solution was analyzed by HPLC. Radioligand breakdown was monitored and the percentage of intact radiopeptide was calculated using Chromeleon Dionex Software (Version 7.2.9.11323). Additionally, the radiolabeled peptides (1000 pmol/mL) were incubated in PBS (n = 1) at room temperature to confirm the complex stability as a control.

Data set [4] can be described thus: Binding to serum proteins (incubation in human serum, Sephadex G-50 size exclusion chromatography). Format: in vitro ADME. To be noted: 37 °C. As to the method: Protein binding was determined by incubation of the radiolabeled peptides in human serum at 37 °C (500 pmol/mL, n = 2). For the time points of 1, 4, and 24 h after incubation, samples of 25 µL were subjected to Sephadex G-50 size exclusion chromatography (GE Healthcare Illustra, Little Chalfont, UK). The column and the eluate were measured using the γ-counter and the percentage of protein binding was calculated.
In general terms: Size exclusion chromatography separates by hydrodynamic size, large species first.

With `CCCC[C@@H](C(=O)N[C@@H](CC(=O)O)C(=O)N[C@@H](Cc1cccc2ccccc12)C(=O)NC)N(C)C(=O)[C@H](Cc1c[nH]c2ccccc12)NC(=O)CNC(=O)[C@H](Cc1ccc(O)cc1)NC(=O)[C@H](C)NC(=O)[C@@H](CCC(=O)O)NC(=O)CN1CCN(CC(=O)O)CCN(CC(=O)O)CCN(CC(=O)O)CC1` [[^111In]In-DOTA-MGS5[NHCH3]] [metal not drawn], in data set [1], the “Intact radiopeptide in kidney” value amounted to 7.4 ± 8.6%, the “Intact radiopeptide in liver” value is listed as 78.1 ± 3.7%, the “Intact radiopeptide in blood” value is on record as 71.7 ± 6.2% and the “Intact radiopeptide in urine” value is recorded as 1.3 ± 0.2%.
As to `CCCC[C@@H](C(=O)N[C@@H](CC(=O)O)C(=O)N[C@@H](Cc1ccc2ccccc2c1)C(N)=O)N(C)C(=O)[C@H](Cc1c[nH]c2ccccc12)NC(=O)CNC(=O)[C@H](Cc1ccc(O)cc1)NC(=O)[C@H](C)NC(=O)[C@@H](CCC(=O)O)NC(=O)CN1CCN(CC(=O)O)CCN(CC(=O)O)CCN(CC(=O)O)CC1` [[^111In]In-DOTA-[2Nal^8]MGS5] [metal not drawn], in data set [1], the “Intact radiopeptide in kidney” value is listed as 24.7 ± 0.3%, the “Intact radiopeptide in liver” value is recorded as 83.9 ± 0.1%, the “Intact radiopeptide in blood” value was found to be 88.4 ± 0.4% and the “Intact radiopeptide in urine” value was found to be 28.2 ± 1.0%.
For orientation: fraction remaining means the share of the starting amount still present when the sample was taken. Higher therefore signals greater stability. Regarding `CCCC[C@@H](C(=O)N[C@@H](CC(=O)O)C(=O)N(C)[C@@H](Cc1cccc2ccccc12)C(N)=O)N(C)C(=O)[C@H](Cc1c[nH]c2ccccc12)NC(=O)CNC(=O)[C@H](Cc1ccc(O)cc1)NC(=O)[C@H](C)NC(=O)[C@@H](CCC(=O)O)NC(=O)CN1CCN(CC(=O)O)CCN(CC(=O)O)CCN(CC(=O)O)CC1` [[^111In]In-DOTA-[(N-Me)1Nal^8]MGS5, metal not drawn], the tissue to tissue ratio at 4 h is 281 ± 88.5 in data set [2] (A431-CCK2R xenograft / blood, A431-CCK2R xenograft, read-out: tumor-to-organ ratio: blood); 7.55 ± 0.48 in data set [2] (A431-CCK2R xenograft / kidney, A431-CCK2R xenograft, read-out: tumor-to-organ ratio: kidney); 11.5 ± 1.82 in data set [2] (A431-CCK2R xenograft / stomach, A431-CCK2R xenograft, read-out: tumor-to-organ ratio: stomach). Moreover, the tissue uptake at 4 h in data set [2] (A431-mock xenograft, read-out: Uptake in A431-mock xenograft) is 0.38 ± 0.08 %ID/g; in data set [2] (blood, read-out: Uptake in blood) it was 0.19 ± 0.07 %ID/g; in data set [2] (heart, read-out: Uptake in heart), 0.14 ± 0.03 %ID/g; in data set [2] (intestine, read-out: Uptake in intestine), 0.81 ± 0.1 %ID/g; in data set [2] (kidneys, read-out: Uptake in kidneys) it was 6.33 ± 0.89 %ID/g; in data set [2] (liver, read-out: Uptake in liver), 1.39 ± 0.16 %ID/g. The tissue uptake at 4 h is 0.21 ± 0.07 %ID/g in data set [2] (lung, read-out: Uptake in lung); 0.12 ± 0.05 %ID/g in data set [2] (muscle, read-out: Uptake in muscle); 0.32 ± 0.05 %ID/g in data set [2] (spleen, read-out: Uptake in spleen). This compound also returned an amount remaining at 4 h, 1000 pmol/mL in data set [3] (human, radiolabeled peptide, 4 h after incubation) of 99.3 ± 0.9%. In data set [3] (radiolabeled peptide (111In where no radiometal named), 24 h after incubation), the fraction remaining at 24 h, 1000 pmol/mL was determined as 99.6 ± 0.1%.
With `CCCC[C@@H](C(=O)N[C@@H](CC(=O)O)C(=O)N[C@@H](Cc1ccccc1)C(N)=O)N(C)C(=O)[C@H](Cc1c[nH]c2ccccc12)NC(=O)CNC(=O)[C@H](Cc1ccc(O)cc1)NC(=O)[C@H](C)NC(=O)[C@@H](CCC(=O)O)NC(=O)CN1CCN(CC(=O)O)CCN(CC(=O)O)CCN(CC(=O)O)CC1` [[^111In]In-DOTA-[Phe^8]MGS5] [metal not drawn] ({DOTA}-[dE]AYGW[NMeNle]DF-NH2), the “Binding to Serum Proteins (%)” value in data set [4] (radiolabeled peptide (111In where no radiometal named), 500 pmol/mL, 24 h after incubation, Sephadex G-50, γ-counter, n = 2) came to 20%.
In general, fraction unbound refers to the share of the substance not bound to proteins or other matrix. Read a high fraction unbound as much free substance. With `CCCC[C@@H](C(=O)N[C@@H](CC(=O)O)C(=O)N(C)[C@@H](Cc1cccc2ccccc12)C(N)=O)N(C)C(=O)[C@H](Cc1c[nH]c2ccccc12)NC(=O)CNC(=O)[C@H](Cc1ccc(O)cc1)NC(=O)[C@H](C)NC(=O)[C@@H](CCC(=O)O)NC(=O)CN1CCN(CC(=O)O)CCN(CC(=O)O)CCN(CC(=O)O)CC1` [[^177Lu]Lu-DOTA-[(N-Me)1Nal^8]MGS5, metal not drawn], the tissue uptake at 4 h was determined as 35.1 ± 6.32 %ID/g in data set [2] (A431-CCK2R xenograft, read-out: Uptake in A431-CCK2R xenograft) and 2.37 ± 0.33 %ID/g in data set [2] (stomach, read-out: Uptake in stomach). For the same compound, the fraction unbound at 4 h, 500 pmol/mL in data set [4] (human, radiolabeled peptide, 4 h after incubation, Sephadex G-50, n = 2) was 0.746. Besides, the fraction unbound at 24 h, 500 pmol/mL in data set [4] (radiolabeled peptide (111In where no radiometal named), 24 h after incubation, Sephadex G-50, γ-counter, n = 2) was 0.713.
